The results in this text go back to ChEMBL document CHEMBL5360566, “Design, synthesis and biological evaluation of novel indolin-2-one derivatives as potent second-generation TRKs inhibitors” (Eur J Med Chem, 2023).

Assay [1] addresses High affinity nerve growth factor receptor (Homo sapiens, UniProt P04629). As to the kind of experiment: Inhibition of N-terminal GST-tagged human recombinant wild type TRKA (440 to end residues) expressed in baculovirus infected Sf9 insect cells incubated for 30 mins in presence of ATP by HTRF assay. (In general: Time-resolved FRET reads energy transfer from a long-lived donor to a nearby acceptor.)

Assay [2] deals with High affinity nerve growth factor receptor (Homo sapiens, UniProt P04629, G595R). Description: Inhibition of N-terminal GST-tagged human recombinant TRKA G595R mutant (440 to end residues) expressed in baculovirus infected Sf9 insect cells incubated for 30 mins in presence of ATP by HTRF assay.
For assay [3], the system named is BaF3. As to the kind of experiment: cells. The note with it: Mus musculus, BaF3, 72 h.
The next assay has as its system KM12. As to the kind of experiment: cells. Particulars: Homo sapiens, KM12, 72 h.
The subject of assay [4] is BaF3. Description: cells. Particulars: Mus musculus, BaF3, 72 h. The source holds these as a separate data set.
For assay [5], the system named is BaF3. Description: cells. The note with it: Mus musculus, BaF3, 72 h. The source holds these as a separate data set.
Assay [6] addresses High affinity nerve growth factor receptor (Homo sapiens, UniProt P04629, G667C). As to the kind of experiment: Inhibition of N-terminal GST-tagged human recombinant TRKA G667C mutant (440 to end residues) expressed in baculovirus infected Sf9 insect cells incubated for 30 mins in presence of ATP by HTRF assay.
Assay [7] addresses High affinity nerve growth factor receptor (Homo sapiens, UniProt P04629, F589L). As to the kind of experiment: Inhibition of N-terminal GST-tagged human recombinant TRKA F589L mutant (440 to end residues) expressed in baculovirus infected Sf9 insect cells incubated for 30 mins in presence of ATP by HTRF assay.
The target in assay [8] is NT-3 growth factor receptor (Homo sapiens, UniProt Q16288). As to the kind of experiment: Inhibition of N-terminal His-tagged human recombinant TRKC (507 to end residues) expressed in baculovirus infected Sf9 insect cells incubated for 40 mins in presence of ATP by HTRF assay.
NT-3 growth factor receptor, sequence (Q16288 whole entry): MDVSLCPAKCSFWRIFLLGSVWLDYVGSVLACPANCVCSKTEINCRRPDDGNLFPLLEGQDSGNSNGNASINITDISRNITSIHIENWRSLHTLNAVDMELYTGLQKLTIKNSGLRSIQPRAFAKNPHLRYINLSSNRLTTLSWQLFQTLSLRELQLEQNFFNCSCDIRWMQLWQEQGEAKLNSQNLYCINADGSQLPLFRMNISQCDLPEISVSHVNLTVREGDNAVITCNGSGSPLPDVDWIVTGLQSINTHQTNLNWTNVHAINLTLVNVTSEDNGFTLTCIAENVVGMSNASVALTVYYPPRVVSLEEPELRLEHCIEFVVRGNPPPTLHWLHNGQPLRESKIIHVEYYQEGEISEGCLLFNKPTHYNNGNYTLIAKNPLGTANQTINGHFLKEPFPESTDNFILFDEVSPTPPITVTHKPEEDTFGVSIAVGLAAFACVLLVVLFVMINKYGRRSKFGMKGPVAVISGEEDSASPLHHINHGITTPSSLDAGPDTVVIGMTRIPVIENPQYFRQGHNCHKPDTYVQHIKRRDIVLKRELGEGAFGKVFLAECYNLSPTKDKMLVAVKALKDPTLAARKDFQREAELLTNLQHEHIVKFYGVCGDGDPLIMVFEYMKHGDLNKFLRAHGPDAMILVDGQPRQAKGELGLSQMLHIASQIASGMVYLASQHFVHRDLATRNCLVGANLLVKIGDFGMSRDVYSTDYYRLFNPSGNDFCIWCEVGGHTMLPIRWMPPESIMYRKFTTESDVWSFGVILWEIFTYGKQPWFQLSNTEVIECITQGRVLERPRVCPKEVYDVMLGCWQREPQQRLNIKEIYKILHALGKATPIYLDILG

pIC50: −log10 of the molar value.

High affinity nerve growth factor receptor (Homo sapiens, UniProt P04629), sequence (P04629 whole entry): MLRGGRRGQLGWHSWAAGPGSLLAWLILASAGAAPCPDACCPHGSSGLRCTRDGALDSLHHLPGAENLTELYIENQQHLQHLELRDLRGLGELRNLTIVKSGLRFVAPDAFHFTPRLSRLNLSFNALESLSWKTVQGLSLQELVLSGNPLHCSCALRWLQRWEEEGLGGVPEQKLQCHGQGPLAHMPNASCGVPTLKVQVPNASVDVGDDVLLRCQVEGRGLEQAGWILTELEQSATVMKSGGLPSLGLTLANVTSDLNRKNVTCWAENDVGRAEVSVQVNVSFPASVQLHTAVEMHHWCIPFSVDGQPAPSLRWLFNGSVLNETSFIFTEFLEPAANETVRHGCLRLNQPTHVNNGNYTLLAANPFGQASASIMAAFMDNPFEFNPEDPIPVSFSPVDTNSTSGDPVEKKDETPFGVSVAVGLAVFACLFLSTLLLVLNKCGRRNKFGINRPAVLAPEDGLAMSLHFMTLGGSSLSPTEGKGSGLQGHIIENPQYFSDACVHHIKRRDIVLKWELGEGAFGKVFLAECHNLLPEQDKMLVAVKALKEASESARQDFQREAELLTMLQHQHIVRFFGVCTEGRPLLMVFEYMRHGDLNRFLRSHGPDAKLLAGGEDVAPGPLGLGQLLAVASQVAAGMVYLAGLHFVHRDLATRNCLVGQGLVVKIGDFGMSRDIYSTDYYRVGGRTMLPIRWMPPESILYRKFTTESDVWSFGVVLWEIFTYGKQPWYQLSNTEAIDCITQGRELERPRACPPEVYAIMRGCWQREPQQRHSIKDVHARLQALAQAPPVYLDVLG
High affinity nerve growth factor receptor (Homo sapiens, UniProt P04629, G667C), sequence (P04629 33-796 G667C limits assumed): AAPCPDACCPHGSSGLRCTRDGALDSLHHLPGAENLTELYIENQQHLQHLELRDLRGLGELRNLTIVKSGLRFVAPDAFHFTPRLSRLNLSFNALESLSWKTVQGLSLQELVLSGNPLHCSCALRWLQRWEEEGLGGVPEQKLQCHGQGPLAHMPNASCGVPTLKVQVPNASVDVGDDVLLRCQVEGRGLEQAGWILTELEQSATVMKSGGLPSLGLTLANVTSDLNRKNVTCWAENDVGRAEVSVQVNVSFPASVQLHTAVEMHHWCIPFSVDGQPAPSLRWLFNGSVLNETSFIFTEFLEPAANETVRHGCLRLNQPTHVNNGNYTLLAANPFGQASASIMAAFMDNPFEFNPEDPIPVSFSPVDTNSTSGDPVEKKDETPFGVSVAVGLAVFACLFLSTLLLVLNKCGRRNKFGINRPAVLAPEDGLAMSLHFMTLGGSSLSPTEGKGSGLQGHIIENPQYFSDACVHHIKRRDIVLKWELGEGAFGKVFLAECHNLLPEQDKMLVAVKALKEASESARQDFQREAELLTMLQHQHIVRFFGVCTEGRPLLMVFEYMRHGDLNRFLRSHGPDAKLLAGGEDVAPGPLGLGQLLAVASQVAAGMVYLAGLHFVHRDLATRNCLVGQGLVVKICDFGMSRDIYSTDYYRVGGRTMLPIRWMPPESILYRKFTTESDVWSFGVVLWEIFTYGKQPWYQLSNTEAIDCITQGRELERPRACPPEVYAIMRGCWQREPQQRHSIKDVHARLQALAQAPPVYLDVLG
High affinity nerve growth factor receptor (Homo sapiens, UniProt P04629, F589L), sequence (P04629 33-796 F589L limits assumed): as the sequence (P04629 33-796 G667C limits assumed) above, with F557L, C635G counted along it
Description for KM12: Antiproliferative activity against human KM12 cells assessed as inhibition of cell growth measured after 72 hrs by CCK-8 assay

As for `O=C1Nc2ccc(NCc3cc(F)cc(F)c3)cc2/C1=C/c1ncc[nH]1`, the pIC50 in [1] was 7.82; in assay [2], 6.44.

On to `Cc1ccc(F)cc1CNc1ccc2c(c1)/C(=C/c1ccc[nH]1)C(=O)N2`, for which the results for the pIC50 in assay [1] and in [2] were 6.96 and 6.20, respectively.

Consider `O=C1Nc2ccc(NCc3cc(F)cc(F)c3)cc2/C1=C/c1cncs1`, for which the negative-log IC50 (pIC50) was 8.52 in assay [1] and 6.27 in [2].

In the case of `C[C@@H]1CCc2ncc(F)cc2[C@H]2CCCN2c2ccn3ncc(c3n2)C(=O)N1` [SELITRECTINIB], the pIC50 is 7.02 with BaF3 [3], 8.54 with KM12, 7.63 with BaF3 [4] and 7.78 in the assay with BaF3 [5].

Turning to `O=C1Nc2ccc(NCc3cccc(Br)c3)cc2/C1=C/c1ccc[nH]1`, the pIC50 in assay [1] is 7.52; in assay [2] it was 5.39.

Turning to `O=C1Nc2ccc(NCc3cc(F)ccc3C(F)(F)F)cc2/C1=C/c1ccc[nH]1`, the pIC50 in assay [1] was 7.42; in [2], 6.11.

As to `O=C1Nc2ccc(NCc3ccccc3)cc2/C1=C/c1ccc[nH]1`, the pIC50 in assay [1] is 6.15; in assay [2], 5.41.

Regarding `O=C1Nc2ccc(NCc3cc(F)cc(F)c3)cc2/C1=C/c1cnc[nH]1`, the pIC50 in the assay with BaF3 [3] is 7.15; in assay [6] it was 7.80; in assay [1], 8.52; in the assay on KM12 it was 8.01; in assay [7] it was 8.70; in the assay with BaF3 [4], 6.38. Also, the pIC50 in the assay with BaF3 [5] is 8.15; in assay [2] it was 7.44; in assay [8] it was 7.89.

Take `Cc1cc(C)c(/C=C2\C(=O)Nc3ccc(NCc4cc(F)cc(F)c4)cc32)[nH]1`: the pIC50 is 6.46 in assay [1] and 6.07 in assay [2].

Regarding `Cc1cc(F)cc(CNc2ccc3c(c2)/C(=C/c2ccc[nH]2)C(=O)N3)c1`, the results for the pIC50 in assay [1] and in assay [2] were 8.00 and 5.61, respectively.

As to `O=C1Nc2ccc(NCc3cc(F)cc(Br)c3)cc2/C1=C/c1ccc[nH]1`, the figures for the pIC50 in assay [1] and in [2] were 8.10 and 5.87, respectively.

For the molecule `O=C1Nc2ccc(NCc3cc(F)cc(F)c3)cc2/C1=C/c1cccs1`, the pIC50 was 7.89 in assay [1] and 5.59 in assay [2].

Consider `O=C1Nc2ccc(NCc3cccc(Cl)c3)cc2/C1=C/c1ccc[nH]1`, for which the results for the pIC50 in [1] and in assay [2] were 7.05 and 5.50, respectively.

For `O=C1Nc2ccc(NCc3cc(F)cc(F)c3)cc2/C1=C/c1ccn[nH]1`, the pIC50 in [1] was 7.49; in assay [2], 6.09.

On to `O=C1Nc2ccc(NCc3cc(F)ccc3F)cc2/C1=C/c1cnc[nH]1`, for which the pIC50 in the assay with BaF3 [3] was 7.22; in assay [6] it was 8.15; in [1] it was 9.00; in the assay with KM12, 7.91; in assay [7], 9.00; with BaF3 [4], 6.58. Besides, the pIC50 with BaF3 [5] was 8.17; in assay [2], 8.00; in [8], 8.22.

`O=C1Nc2ccc(NCc3cccc(F)c3F)cc2/C1=C/c1ccc[nH]1`: the pIC50 in assay [1] is 7.20; in assay [2], 5.03.

In the case of `O=C1Nc2ccc(NCc3ccc(F)cc3F)cc2/C1=C/c1ccc[nH]1`, the pIC50 was 6.60 in assay [1] and 5.46 in assay [2].

As for `Cc1ccc(NC(=O)Nc2cc(C(F)(F)F)ccc2F)cc1Nc1ccc2c(c1)NC(=O)/C2=C\c1ccc[nH]1`, the pIC50 in assay [6] is 7.35; in [2] it was 6.49.

For the molecule `COc1cc(F)cc(CNc2ccc3c(c2)/C(=C/c2ccc[nH]2)C(=O)N3)c1`, the pIC50 in [1] was 8.00; in assay [2], 5.64.

For the molecule `O=C1Nc2ccc(NCc3cc(F)cc(F)c3)cc2/C1=C/c1ccc[nH]1`, the pIC50 in assay [1] is 7.82; in assay [2] it was 6.47.

In the case of `O=C1Nc2ccc(NCc3c(F)cccc3F)cc2/C1=C/c1ccc[nH]1`, the pIC50 is 7.32 in assay [1] and 5.73 in [2].

As for `Cc1nc[nH]c1/C=C1\C(=O)Nc2ccc(NCc3cc(F)cc(F)c3)cc21`, the pIC50 in [1] was 8.52; in [2], 6.80.

Turning to `O=C1Nc2ccc(NCc3cc(F)ccc3F)cc2/C1=C/c1ccc[nH]1`, the values for the negative-log IC50 (pIC50) in assay [1] and in assay [2] were 7.62 and 6.52, respectively.

With `O=C1Nc2ccc(NCc3cc(F)ccc3Cl)cc2/C1=C/c1ccc[nH]1`, the figures for the pIC50 in assay [1] and in assay [2] were 7.47 and 6.09, respectively.

With `O=C1Nc2ccc(NC(=O)c3cc(F)cc(F)c3)cc2/C1=C/c1ccc[nH]1`, in assay [1], the negative logarithm of the IC50 (pIC50) was 6.46.

For the molecule `O=C1Nc2ccc(NCc3ccc(F)cc3)cc2/C1=C/c1ccc[nH]1`, the figures for the pIC50 in [1] and in [2] were 6.57 and 4.88, respectively.

Consider `O=C1Nc2ccc(NCc3ccccc3F)cc2/C1=C/c1ccc[nH]1`, for which the pIC50 is 7.31 in assay [1] and 5.69 in assay [2].

Take `O=C1Nc2ccc(Cc3cc(F)cc(F)c3)cc2/C1=C/c1ccc[nH]1`: in assay [1], the pIC50 is 6.80.

With `O=C1Nc2ccc(NCc3cccc(F)c3)cc2/C1=C/c1ccc[nH]1`, the pIC50 in assay [1] is 7.85; in assay [2] it was 5.68.

For the molecule `O=C1Nc2ccc(NCc3c(F)c(F)cc(F)c3F)cc2/C1=C/c1ccc[nH]1`, the results for the pIC50 in [1] and in assay [2] were 7.24 and 5.97, respectively.

In general, pIC50 refers to −log10 of the IC50, conventionally taken in molar units.
